# Results as given in publication PMC4481117 (Molecular Pain, 2015).
# Tests used:
# k-opioid receptors = system: k-opioid receptors; set-up: method as in PMID 10973443, PMID 16364815, PMID 22424981; settings: cited from earlier work
# Mac-1-HEK293 cells = assay: Translocation of Dyn A into Mac-1-HEK293 cells (immunolabeling); format: cell-based, Human; settings: 40 min at 37 °C
# Method: Fig. 5 Translocation of Dyn A into cells. Mac-1-expressing (a) and wild-type HEK293 (b) cells were incubated with 20 μM and 100 μM of Dyn A for 40 min at 37 °C, fixed, permeabilized and incubated with anti-dynorphin antibodies followed by Alexa Fluor 488-conjugated secondary goat anti-rabbit antibodies. No labeling was detected in the absence of primary antibody. c, Enlarged images of Dyn A-accumulated Mac-1- and wild-type HEK cells shown in a and b. d, Quantification of fluorescent cells shown in a and b
# Mac-1-HEK 293 and wild-type HEK 293 cells were incubated for 10 min with different concentrations (0–100 μM) of Dyn A and allowed to adhere to glass coverslips coated with poly-Lysine for 30 min. Adherent cells were fixed in 2 % paraformaldehyde solution, permeabilized with 0.1 % Tween-20, and blocked with 10 % normal goat serum plus 1 % BSA. The coverslips were incubated with 5 μg/ml polyclonal anti-Dyn A antibody followed by an secondary goat anti-rabbit antibody conjugated to Alexa Fluor 488 (1:1000). Images were taken using a Leica DM 4000B microscope (Leica, Buffalo Grove, IL).
# [1] = system: Mac-1 (Mac-1-HEK293 cells); assay: Inhibition of adhesion of Mac-1-HEK293 cells to fibrinogen by soluble peptides; format: cell-based, Human; settings: soluble peptide 50 μM, 10 min at 22 °C; 2.5 μg/mL fibrinogen coating, 30 min at 37 °C; mean ± S.E., three experiments
# Method: Fig. 4 Effect of soluble Dyn A on Mac-1-mediated cell adhesion to fibrinogen. a (left ordinate), calcein-labeled Mac-1-HEK293 cells were preincubated with different concentrations of dynorphin A (black bar), dynorphin B (open bar) or control peptide (gray bar) for […] at 22 °C and added to the wells of microtiter plates coated with 2.5 μg/mL fibrinogen. Cells were allowed to adhere for 30 minutes at 37 °C before removing nonadherent cells. […] Data are expressed as a percentage of total cell fluorescence
# Adhesion assays were performed essentially as described previously. […] Cells were labeled with 10 μM calcein for 30 min at 37 °C and washed twice with Hanks’ Balanced salt solution (HBSS) containing 0.1 % BSA. Aliquots (100 μl) of labeled cells (5x10^5/ml) were added to each well and allowed to adhere for 30 min at 37 °C. The non-adherent cells were removed by two washes with PBS. Fluorescence was measured in a CytoFluorII fluorescence plate reader (Perceptive Biosystems, Framingham, MA). In inhibition experiments, cells were mixed with different concentrations of peptides, NIF or mAbs for 20 min at 22 °C before they were added to the wells coated with adhesive substrates. […] After aspirating the solution, labeled cells were added and cell adhesion was analyzed as above.
structure (smiles),measurement,setting,value
CC[C@H](C)[C@H](NC(=O)[C@H](CCCNC(=N)N)NC(=O)[C@H](CCCNC(=N)N)NC(=O)[C@H](CC(C)C)NC(=O)[C@H](Cc1ccccc1)NC(=O)CNC(=O)CNC(=O)[C@@H](N)Cc1ccc(O)cc1)C(=O)N[C@@H](CCCNC(=N)N)C(=O)N1CCC[C@H]1C(=O)N[C@@H](CCCCN)C(=O)N[C@@H](CC(C)C)C(=O)N[C@@H](CCCCN)C(=O)N[C@@H](Cc1c[nH]c2ccccc12)C(=O)N[C@@H](CC(=O)O)C(=O)N[C@@H](CC(N)=O)C(=O)N[C@@H](CCC(N)=O)C(=O)O [Dyn A],κ-opioid receptor binding,k-opioid receptors,binds preferentially to the k-opioid receptors
same,Localization of Dyn A in Mac-1-HEK293 cells,Mac-1-HEK293 cells; 20 μM Dyn A,primarily associated with the cell periphery
same,Number of Mac-1-HEK293 cells accumulating Dyn A vs wild-type,"Mac-1-HEK293 cells; Dyn A, anti-dynorphin antibodies",significantly smaller number of Mac-1-HEK293 cells accumulated Dyn A
same,Inhibition of adhesion to fibrinogen,[1],67 ± 2%
